The results in this text go back to US20230219986A1, “NOVEL AMINOPYRIMIDINE EGFR INHIBITOR” (QILU PHARMACEUTICAL CO., LTD., priority 2020, published 2023).

Assay [1] deals with EGFR wild-type cell line A431. In words: Cell proliferation inhibition experiment (CellTiter-Glo), A431. Format: cell-based. As to conditions: Homo sapiens, A-431, 72 h, A431 cells, Cell Titer-Glo, read-out: A431 EGFR WT IC50. The method in brief:
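A431 cells, 800 per well, were cultured 24 h and then exposed to serially diluted compound (0.1% DMSO final) for 72 h at 37° C., 5% CO2.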
(In general: Cellular ATP, detected with luciferase, serves as a proxy for viable cell number.)

A further assay concerns the target T1, wild-type EGFR (Homo sapiens, UniProt P00533).
T1 construct: purchased Signalchem
In words: Enzymology experiment in vitro (HTRF/FRET kinase activity), wild-type EGFR. The settings on record: HTRF KinEASE-TK, read-out: EGFR (WT) IC50. Format: biochemical. The method in brief:
(§1)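 HTRF KinEASE-TK format: EGFR enzyme preincubated with compound 10 min at room temperature, then peptide substrate plus ATP added for 40 min. Detection with EDTA, XL665-streptavidin and Eu³⁺-labeled antibody for 1 h.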
Background: TR-FRET usually uses a lanthanide donor and a delayed reading to cut background.

Assay [2] has as its target Ba/F3 De119/T790M/C797S EGFR triple mutant cell line (Homo sapiens, UniProt P00533, T790M/C797S, cells depend on it, form not given). Description: Cell proliferation inhibition experiment (CellTiter-Glo), Ba/F3 De119/T790M/C797S. The settings on record: Ba/F3 Del19/T790M/C797S EGFR triple mutant cells, 72 hours, Cell Titer-Glo; read-out: Ba/F3 (Del19/T790M/C797S) IC50. It is filed as cell-based.

Assay [3] deals with Ba/F3 L858R/T790M/C797S EGFR triple mutant cell line (Homo sapiens, UniProt P00533, T790M/C797S/L858R, cells depend on it). In words: Cell proliferation inhibition experiment (CellTiter-Glo), Ba/F3 L858R/T790M/C797S. As to conditions: 72 hours, Cell Titer-Glo, read-out: Ba/F3 (L858R/T790M/C797S) IC50. It is filed as cell-based.
Sequence of Ba/F3 L858R/T790M/C797S EGFR triple mutant cell line (P00533 whole entry T790M/C797S/L858R): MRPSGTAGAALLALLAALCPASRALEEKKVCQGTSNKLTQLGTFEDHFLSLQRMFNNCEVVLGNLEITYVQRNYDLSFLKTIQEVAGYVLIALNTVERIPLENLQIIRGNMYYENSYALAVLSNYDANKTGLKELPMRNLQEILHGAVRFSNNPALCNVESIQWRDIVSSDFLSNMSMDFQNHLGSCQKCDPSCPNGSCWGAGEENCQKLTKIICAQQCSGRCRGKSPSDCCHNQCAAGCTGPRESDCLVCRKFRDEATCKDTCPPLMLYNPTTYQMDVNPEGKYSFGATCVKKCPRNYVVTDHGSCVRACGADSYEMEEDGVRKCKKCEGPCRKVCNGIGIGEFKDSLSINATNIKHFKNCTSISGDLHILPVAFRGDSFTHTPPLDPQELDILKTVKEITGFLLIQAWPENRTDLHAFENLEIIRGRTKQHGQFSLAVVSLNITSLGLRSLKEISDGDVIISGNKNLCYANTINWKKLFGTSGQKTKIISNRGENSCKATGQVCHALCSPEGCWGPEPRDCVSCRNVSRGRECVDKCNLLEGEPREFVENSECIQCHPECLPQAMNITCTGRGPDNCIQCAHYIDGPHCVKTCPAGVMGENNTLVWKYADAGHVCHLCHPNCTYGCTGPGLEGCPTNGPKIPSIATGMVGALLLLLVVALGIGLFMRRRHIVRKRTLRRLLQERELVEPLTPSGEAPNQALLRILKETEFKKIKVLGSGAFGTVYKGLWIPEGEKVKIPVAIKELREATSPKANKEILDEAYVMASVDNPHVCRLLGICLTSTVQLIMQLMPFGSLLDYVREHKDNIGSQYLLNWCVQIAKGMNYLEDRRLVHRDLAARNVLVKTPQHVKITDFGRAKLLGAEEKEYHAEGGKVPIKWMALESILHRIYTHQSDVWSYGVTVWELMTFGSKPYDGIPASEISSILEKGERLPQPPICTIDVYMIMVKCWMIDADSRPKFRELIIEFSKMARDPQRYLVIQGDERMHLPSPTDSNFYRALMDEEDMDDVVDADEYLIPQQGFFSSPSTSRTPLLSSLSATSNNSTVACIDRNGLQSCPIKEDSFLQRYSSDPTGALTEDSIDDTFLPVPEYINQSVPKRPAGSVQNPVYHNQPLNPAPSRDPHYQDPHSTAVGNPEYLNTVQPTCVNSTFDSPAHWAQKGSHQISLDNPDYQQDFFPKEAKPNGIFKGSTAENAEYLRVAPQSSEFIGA
For assay [4], the target named is T2, L858R/T790M/C797S triple mutant EGFR (Homo sapiens, UniProt P00533, C797S/L858R/T790M).
T2 construct: purchased Signalchem
T2 sequence (P00533 25-1210 T790M/C797S/L858R): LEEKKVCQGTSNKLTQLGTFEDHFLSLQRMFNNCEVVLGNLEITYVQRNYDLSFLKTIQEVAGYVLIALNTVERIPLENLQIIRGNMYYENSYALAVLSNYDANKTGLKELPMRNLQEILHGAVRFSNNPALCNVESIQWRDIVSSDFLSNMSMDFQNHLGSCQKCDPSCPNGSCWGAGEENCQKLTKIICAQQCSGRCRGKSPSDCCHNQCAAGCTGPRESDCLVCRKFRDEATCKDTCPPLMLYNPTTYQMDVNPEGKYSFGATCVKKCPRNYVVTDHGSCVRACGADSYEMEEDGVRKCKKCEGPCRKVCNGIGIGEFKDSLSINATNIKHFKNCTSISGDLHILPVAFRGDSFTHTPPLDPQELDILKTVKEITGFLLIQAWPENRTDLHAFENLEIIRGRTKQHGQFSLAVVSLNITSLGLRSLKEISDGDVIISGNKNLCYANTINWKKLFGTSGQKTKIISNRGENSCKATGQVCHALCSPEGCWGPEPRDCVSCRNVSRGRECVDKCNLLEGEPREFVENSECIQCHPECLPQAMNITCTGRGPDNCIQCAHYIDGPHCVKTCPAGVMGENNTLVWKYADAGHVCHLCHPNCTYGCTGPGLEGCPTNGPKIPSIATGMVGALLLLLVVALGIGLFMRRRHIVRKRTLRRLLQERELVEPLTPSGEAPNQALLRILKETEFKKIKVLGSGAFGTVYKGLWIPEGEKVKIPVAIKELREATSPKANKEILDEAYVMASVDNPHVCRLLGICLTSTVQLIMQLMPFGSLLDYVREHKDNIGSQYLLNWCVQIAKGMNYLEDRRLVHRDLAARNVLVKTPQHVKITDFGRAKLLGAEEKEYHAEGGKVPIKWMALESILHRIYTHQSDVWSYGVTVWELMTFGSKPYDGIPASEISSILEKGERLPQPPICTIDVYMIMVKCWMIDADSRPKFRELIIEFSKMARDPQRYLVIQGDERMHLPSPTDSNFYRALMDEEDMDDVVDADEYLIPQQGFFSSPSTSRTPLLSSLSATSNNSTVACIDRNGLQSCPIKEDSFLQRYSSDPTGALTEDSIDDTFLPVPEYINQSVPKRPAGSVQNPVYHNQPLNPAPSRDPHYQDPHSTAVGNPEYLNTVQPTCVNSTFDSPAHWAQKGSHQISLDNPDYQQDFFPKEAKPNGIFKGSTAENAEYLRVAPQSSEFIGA
In words: Enzymology experiment in vitro (HTRF/FRET kinase activity), L858R/T790M/C797S triple mutant EGFR. Format: biochemical. As to conditions: HTRF KinEASE-TK, read-out: EGFR (L858R/T790M/C797S) IC50. The method in brief:
as §1

Where only a bound is given, the exact number is not on record here.

T1 sequence (P00533 25-1210): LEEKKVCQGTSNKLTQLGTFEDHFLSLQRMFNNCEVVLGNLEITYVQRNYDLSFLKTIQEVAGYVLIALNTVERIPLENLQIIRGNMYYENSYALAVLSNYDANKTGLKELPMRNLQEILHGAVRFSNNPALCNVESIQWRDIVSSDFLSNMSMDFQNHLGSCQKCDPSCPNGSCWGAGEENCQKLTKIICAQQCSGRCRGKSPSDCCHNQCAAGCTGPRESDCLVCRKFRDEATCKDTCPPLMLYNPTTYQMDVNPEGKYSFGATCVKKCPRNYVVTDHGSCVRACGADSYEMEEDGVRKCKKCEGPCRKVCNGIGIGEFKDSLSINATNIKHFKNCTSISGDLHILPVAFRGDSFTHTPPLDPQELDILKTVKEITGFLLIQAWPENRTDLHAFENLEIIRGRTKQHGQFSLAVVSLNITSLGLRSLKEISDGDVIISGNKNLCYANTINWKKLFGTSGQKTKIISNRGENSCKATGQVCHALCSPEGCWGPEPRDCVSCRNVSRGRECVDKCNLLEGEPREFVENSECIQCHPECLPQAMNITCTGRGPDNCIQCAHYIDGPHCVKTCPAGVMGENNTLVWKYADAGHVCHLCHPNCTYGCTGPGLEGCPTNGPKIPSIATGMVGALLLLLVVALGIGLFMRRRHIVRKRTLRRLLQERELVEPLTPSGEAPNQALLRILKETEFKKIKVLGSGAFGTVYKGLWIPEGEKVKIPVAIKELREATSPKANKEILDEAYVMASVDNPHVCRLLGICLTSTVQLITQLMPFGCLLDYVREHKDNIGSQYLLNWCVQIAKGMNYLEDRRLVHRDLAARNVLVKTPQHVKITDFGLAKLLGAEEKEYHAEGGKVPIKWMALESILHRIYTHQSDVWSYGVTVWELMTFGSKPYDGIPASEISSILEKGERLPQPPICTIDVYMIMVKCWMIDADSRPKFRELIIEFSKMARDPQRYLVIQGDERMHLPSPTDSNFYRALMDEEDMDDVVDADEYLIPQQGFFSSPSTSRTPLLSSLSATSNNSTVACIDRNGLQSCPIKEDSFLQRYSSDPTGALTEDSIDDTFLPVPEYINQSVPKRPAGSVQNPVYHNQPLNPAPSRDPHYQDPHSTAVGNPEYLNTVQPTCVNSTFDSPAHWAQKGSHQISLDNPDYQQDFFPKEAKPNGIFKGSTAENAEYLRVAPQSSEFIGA
Sequence of Ba/F3 De119/T790M/C797S EGFR triple mutant cell line (P00533 with tags, fused parts or gaps DEL746-750/T790M/C797S, form open): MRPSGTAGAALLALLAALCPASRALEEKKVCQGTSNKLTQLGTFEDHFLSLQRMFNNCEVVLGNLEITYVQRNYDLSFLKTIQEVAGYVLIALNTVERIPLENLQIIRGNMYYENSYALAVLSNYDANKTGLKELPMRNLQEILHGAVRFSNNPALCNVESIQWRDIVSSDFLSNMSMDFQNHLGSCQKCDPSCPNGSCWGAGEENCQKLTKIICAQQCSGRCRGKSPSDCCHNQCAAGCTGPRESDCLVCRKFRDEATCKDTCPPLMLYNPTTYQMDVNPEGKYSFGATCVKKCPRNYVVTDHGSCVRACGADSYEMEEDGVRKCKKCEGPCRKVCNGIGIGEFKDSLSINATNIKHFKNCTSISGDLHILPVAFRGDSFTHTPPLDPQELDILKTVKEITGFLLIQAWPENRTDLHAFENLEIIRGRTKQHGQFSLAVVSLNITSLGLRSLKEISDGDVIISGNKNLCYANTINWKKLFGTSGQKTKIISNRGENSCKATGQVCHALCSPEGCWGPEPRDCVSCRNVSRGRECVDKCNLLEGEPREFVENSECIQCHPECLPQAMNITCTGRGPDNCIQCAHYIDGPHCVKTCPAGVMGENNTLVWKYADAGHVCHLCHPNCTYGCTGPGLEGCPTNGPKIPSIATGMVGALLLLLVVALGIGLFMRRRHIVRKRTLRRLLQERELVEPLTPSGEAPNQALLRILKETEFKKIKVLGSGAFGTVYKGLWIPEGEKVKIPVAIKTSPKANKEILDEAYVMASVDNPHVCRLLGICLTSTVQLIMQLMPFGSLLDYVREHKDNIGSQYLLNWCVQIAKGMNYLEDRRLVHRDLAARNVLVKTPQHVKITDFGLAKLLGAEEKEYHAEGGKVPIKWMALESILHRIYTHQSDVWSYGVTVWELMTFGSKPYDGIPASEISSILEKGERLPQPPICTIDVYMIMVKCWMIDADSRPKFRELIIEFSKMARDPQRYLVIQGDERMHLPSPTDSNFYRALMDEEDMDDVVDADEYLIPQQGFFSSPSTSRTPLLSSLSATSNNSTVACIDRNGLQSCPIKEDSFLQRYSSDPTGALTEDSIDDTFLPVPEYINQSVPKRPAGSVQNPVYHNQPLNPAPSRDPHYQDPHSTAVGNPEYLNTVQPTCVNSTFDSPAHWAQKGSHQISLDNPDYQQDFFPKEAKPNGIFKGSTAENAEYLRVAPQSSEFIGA

Turning to `Cc1nc(N2CCOCC2)c(-c2cnn(C)c2)cc1Nc1ncc(Br)c(Nc2ccc3nccnc3c2P(C)(C)=O)n1` [compound 38], the IC50 in assay [1] was 295 nM; at wild-type EGFR, 17.8 nM; in assay [4], 0.23 nM. Further, the results for the GI50 in assay [2] and in assay [3] were 10.2 nM and 32.6 nM, respectively.

As to `Cn1cc(-c2cc3c(c(Nc4ncc(Br)c(Nc5ccc6nccnc6c5P(C)(C)=O)n4)c2)OCC3)cn1` [compound 39], the results for the IC50 (in assay [1]; at wild-type EGFR; in assay [4]) were 41.3 nM, 7.45 nM and 0.06 nM, respectively. In addition, the GI50 in assay [2] turned out to be 4.07 nM; in assay [3] it was 9.69 nM.

As to `COc1cc(C(=O)N(C)C)c(-c2cnn(C)c2)cc1Nc1ncc(Br)c(Nc2ccc3nccnc3c2P(C)(C)=O)n1` [compound 40], the IC50 in assay [1] is 1180 nM; at wild-type EGFR it was 55.3 nM; in assay [4], 2.85 nM. In addition, the GI50 was found to be 1130 nM in assay [2] and 542 nM in assay [3].

Consider `COc1cc(N2CCOCC2)c(-c2cn(C)nc2C)cc1Nc1ncc(Br)c(Nc2ccc3nccnc3c2P(C)(C)=O)n1` [compound 43], for which the IC50 in assay [1] came to 880 nM; on wild-type EGFR, 95.3 nM; in assay [4], 0.47 nM. In addition, the GI50 worked out at 16.4 nM in assay [2] and 29.7 nM in assay [3].

In the case of `COc1cc(N2CCOCC2)c(-c2cnn(C)c2)nc1Nc1ncc(C)c(Nc2ccc3nccnc3c2P(C)(C)=O)n1` [compound 71], the IC50 is over 10000 nM in assay [1], 38.9 nM at wild-type EGFR and 1.7 nM in assay [4]. Moreover, the GI50 turned out to be 99.4 nM in assay [2] and 316 nM in assay [3].

Consider `COc1cc(N2CCOCC2)c(-c2cnn(C)c2)cc1Nc1ncc(Cl)c(Nc2ccc3nccnc3c2P(C)(C)=O)n1` [compound 72], for which the figures for the IC50 (in assay [1]; on wild-type EGFR; in assay [4]) were 370 nM, 4.69 nM and 0.2 nM, respectively. The GI50 is 4.54 nM in assay [2] and 13.5 nM in assay [3].

With `COc1cc(C23CCOCC2C3)c(-c2cnn(C)c2)cc1Nc1ncc(Br)c(Nc2ccc3nccnc3c2P(C)(C)=O)n1` (stereo not drawn) [compound 77], the IC50 in assay [1] was found to be 480 nM; on wild-type EGFR, 114 nM; in assay [4], 1.24 nM. Moreover, the GI50 in assay [2] was found to be 14.4 nM; in assay [3], 26.4 nM.

Consider `COc1cc(N2CCOCC2)c(-c2cnn(C(F)F)c2)cc1Nc1ncc(Br)c(Nc2ccc3nccnc3c2P(C)(C)=O)n1` [compound 78], for which the IC50 in assay [1] was found to be 550 nM; on wild-type EGFR, 45.5 nM; in assay [4] it was 0.53 nM. For the same molecule, the GI50 was determined as 6.76 nM in assay [2] and 14.4 nM in assay [3].

`COc1cc(N2CCOCC2)c(-c2cnn(C)c2)cc1Nc1ncc(F)c(Nc2ccc3nccnc3c2P(C)(C)=O)n1` [compound 81]: the IC50 in assay [1] was at least 10000 nM; on wild-type EGFR, 7.68 nM; in assay [4], 0.34 nM. Also, the figures for the GI50 in assay [2] and in assay [3] were 19.1 nM and 32.4 nM, respectively.

Turning to `COc1cc(N2CCOCC2)c(-c2cccs2)cc1Nc1ncc(Br)c(Nc2ccc3nccnc3c2P(C)(C)=O)n1` [compound 83], the figures for the IC50 (in assay [1]; at wild-type EGFR; in assay [4]) were 2420 nM, 1000 nM and 3.95 nM, respectively. Moreover, the GI50 is 34 nM in assay [2] and 58.9 nM in assay [3].

Consider `COc1cc(F)c(-c2cnn(C)c2)cc1Nc1ncc(Br)c(Nc2ccc3nccnc3c2P(C)(C)=O)n1` [compound 84], for which the IC50 was 392 nM in assay [1], 16.6 nM on wild-type EGFR and 0.33 nM in assay [4]. Moreover, the GI50 in assay [2] was determined as 12.5 nM; in assay [3], 20.7 nM.

For the molecule `COc1cc(N2CCOCC2)c(-c2cnn(C)c2)cc1Nc1ncc(Br)c(Nc2ccc3c(c2P(C)(C)=O)CC3)n1` [compound 85], the IC50 was found to be 381 nM in assay [1], 9.06 nM at wild-type EGFR and 0.11 nM in assay [4]. The GI50 turned out to be 6.15 nM in assay [2] and 9.29 nM in assay [3].
